Reference: patent US20180116983A1, “COMPOUNDS FOR TREATING DISORDERS ASSOCIATED WITH BK CHANNEL MODULATION” (Canbex Therapeutics Limited, priority 2015, published 2018)
“Also recorded” adds a separate entry of the source.

Key:
[1] = molecular target: T1, KNCMA1 (Sus scrofa, UniProt O18866); test: Whole-cell current in primary pig aortic endothelial cells; format: cell-based; settings: no BK beta chains
T1 construct: endogenous in cells; host or cells: primary pig aortic endothelial cells
Text: Pig aortic endothelial cells only express KNCMAI and not KNCMB1-4 (Papassotiriou et al). Thus, the absence of stimulation indicates a lack of effect on KNCMA1.

[2] = molecular target: T1, KNCMA1; test: Inside-out patch clamp of pig aortic endothelial cells; format: cell-based
[3] = molecular target: T2, BKCa channels formed by the exon-less alpha subunit (Homo sapiens, UniProt Q12791); test: Whole-cell BKCa current in HEK293 cells expressing the alpha subunit alone; format: cell-based; settings: 20 μM
T2 construct: expressed in transfected cells; host or cells: HEK293

[4] = test system: C57BL/6.Fmr1 knockout mice; test: Contextual fear conditioning in Fmr1 knockout mice; format: in vivo, mouse; settings: Fmr1 knockout mice, 2 mg/kg i.v.
Method: Animals: C57BL/6.J. Fmr1-K02 mice, which have a deletion of the promoter and exonl of the Fmr1 gene (Mientjes et al., 2006) and C57BL/6J wild type (WT) were originated from the Jackson laboratory (Ann Harbor, USA). Mice were housed in groups (4-6 per cage) and all animals were provided with ad libitum food and water unless otherwise stated. Mice were maintained on a 12 h light/12 h dark cycle (lights off 19:00 to 7:00) in a temperature-controlled environment (21±1° C.). Testing was conducted in the light phase. Mice were housed in commercial cages and experiments were performed in line with the United Kingdom Animals (Scientific procedures) Act 1986. All experiments were conducted with experimentors blind to genotype and drug treatment. Each experimental group contained 10 animals.
Drug Treatment: VSN16R was dissolved in saline for injection intravenously via a tail vein using 2 mg/kg a 30 g needle in a volume of 0.1 ml. Animals were inspected for differences in coat appearance, to detect whether any piloerection was present. The eye condition (runny eyes or porphyria, ptosis), gait appearance, tremor, tail tone, reactivity to handling was assessed to detect adverse behavioural effect.
Contextual fear conditioning: Animals are trained to expect an electroshock treatment within a defined environment, such that on subsequent presentation of the environment, freezing behaviours are induced. […]

[5] = Half-life by route; format: in vivo
[6] = test system: mouse vas deferens; test: βγ-methylene ATP-induced contraction of mouse vas deferens; settings: 100 nM; electrically unstimulated vasa deferentia
Method: Mouse vas deferens were treated with either DMSO vehicle or 100 nM VSN16R 30 min before the first organ bath injection of various concentrations of βγ-methylene ATP into the organ bath (FIG. 16). The results represent the mean±SEM of βγ-methylene ATP-induced increases in tension (expressed in grams) of electrically unstimulated vasa deferentia. (n=6/group).

[7] = Known efficacious oral dose (model not stated); format: in vivo; settings: p.o.
[8] = molecular target: T3, BK channel (Homo sapiens, UniProt Q12791); test: Whole-cell patch clamp, BK current and membrane potential in EA.hy926 cells; format: cell-based; design: The human umbilical vein derived endothelial cell line, EA.hy926; endogenous in cells; host or cells: EA.hy926 human endothelial cell line
Method: (§1) The human umbilical vein derived endothelial cell line, EA.hy926 (Edgell et al., Proc Natl Acad Sci USA. 1983 June; 80(12): 3734-7) at passage >45 was grown in DMEM containing 10% FCS and 1% HAT (5 mM hypoxanthine, 20 μM aminopterin, 0.8 mM thymidine) and cells were maintained in an incubator at 37° C. in 5% CO2 atmosphere. Cells were plated on either 10 mm (for patch-clamp recordings) or 30 mm glass cover slips (for Ca^2+ measurements).
Membrane potential of EA.hy926 cells was recorded using the perforated patch clamp technique as described previously (Bondarenko et al, 2010, Br. J. Pharmacol. 161, 308-320). For membrane potential recordings from EA.hy926 cells the standard bath solution contained (in mM): 140 NaCl, 5 KCl, 1.2 MgCl2, 10 HEPES, 10 glucose, 2.4 CaCl2, patch pipettes were filled with a solution containing (in mmol/L): 140 KCl; 0.2 EGTA; 10 HEPES (pH adjusted to 7.2 using KOH). The resistance of the pipettes was 3-5 MΩ for whole cell and 6-8 MΩ for single channel recordings.

[9] = molecular target: T3, BK channel; test: Inside-out patch clamp (single channel) on EA.hy926 cells; format: cell-based; design: The human umbilical vein derived endothelial cell line, EA.hy926; endogenous in cells; host or cells: EA.hy926 human endothelial cell line
Method: as §1
Single-channel recordings were obtained from excised inside-out membrane patches in symmetrical solutions. The pipettes were filled with (in mM) 140 KCl, 10 HEPES, 1 MgCl2, 5 EGTA, 4,931 CaCl2 with pH 7.2 by adding KOH (i.e. 10 μM free Ca^2+, G. Droogmans, Leuven, Belgium; ftp://ftp.cc.kuleuven.ac.be/pub/droodmans/cabuf.zip). Cells were perfused with a standard bath solution containing (in mM) 140 NaCl, 5 KCl, 1.2 MgCl2, 10 HEPES, 10 glucose, 2.4 CaCl2. Following gigaseal formation, bath solution was switched to the following (in mM) 140 KCl, 10 HEPES, 1 MgCl2, 5 EGTA and a desired free Ca^2+ concentration which was adjusted by adding different amounts of CaCl2 calculated by the program CaBuf. pH was adjusted to 7.2 by adding KOH. Membrane currents and potential were recorded using a List EPC7 amplifier (List, Germany) and pClamp (version 8.2, Axon Instruments) software.

T3 sequence (Q12791 1-1178 isoform Q12791-5): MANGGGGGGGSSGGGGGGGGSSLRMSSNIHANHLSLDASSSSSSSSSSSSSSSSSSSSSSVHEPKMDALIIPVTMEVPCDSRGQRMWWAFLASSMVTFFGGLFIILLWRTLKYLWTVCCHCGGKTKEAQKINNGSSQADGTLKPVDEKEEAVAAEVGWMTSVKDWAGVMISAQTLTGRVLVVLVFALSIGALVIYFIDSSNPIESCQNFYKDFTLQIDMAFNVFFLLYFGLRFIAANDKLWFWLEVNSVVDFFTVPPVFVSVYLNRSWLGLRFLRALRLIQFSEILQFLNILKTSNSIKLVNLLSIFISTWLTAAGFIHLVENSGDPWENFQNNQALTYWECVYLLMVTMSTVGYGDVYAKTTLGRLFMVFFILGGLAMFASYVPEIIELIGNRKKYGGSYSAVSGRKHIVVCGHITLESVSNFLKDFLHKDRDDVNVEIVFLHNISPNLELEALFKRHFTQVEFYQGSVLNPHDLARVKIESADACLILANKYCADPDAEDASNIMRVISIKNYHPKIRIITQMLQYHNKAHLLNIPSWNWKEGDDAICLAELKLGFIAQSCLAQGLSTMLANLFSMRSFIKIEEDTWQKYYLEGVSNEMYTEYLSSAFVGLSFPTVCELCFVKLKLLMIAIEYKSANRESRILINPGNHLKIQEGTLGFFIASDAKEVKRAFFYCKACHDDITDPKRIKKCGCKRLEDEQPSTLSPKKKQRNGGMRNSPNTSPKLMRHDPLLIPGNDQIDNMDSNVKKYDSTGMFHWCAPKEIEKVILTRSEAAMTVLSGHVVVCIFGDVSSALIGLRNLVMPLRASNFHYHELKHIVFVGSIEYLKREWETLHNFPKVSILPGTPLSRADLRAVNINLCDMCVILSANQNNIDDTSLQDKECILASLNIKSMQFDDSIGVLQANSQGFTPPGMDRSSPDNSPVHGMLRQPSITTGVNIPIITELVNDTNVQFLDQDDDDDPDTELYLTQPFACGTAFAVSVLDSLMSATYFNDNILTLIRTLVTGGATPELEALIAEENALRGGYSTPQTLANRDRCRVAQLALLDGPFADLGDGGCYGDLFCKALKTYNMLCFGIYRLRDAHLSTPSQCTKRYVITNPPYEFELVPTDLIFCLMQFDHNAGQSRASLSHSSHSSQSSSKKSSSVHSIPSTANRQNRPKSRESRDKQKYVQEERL
T3 sequence (Q86W47 whole entry partner): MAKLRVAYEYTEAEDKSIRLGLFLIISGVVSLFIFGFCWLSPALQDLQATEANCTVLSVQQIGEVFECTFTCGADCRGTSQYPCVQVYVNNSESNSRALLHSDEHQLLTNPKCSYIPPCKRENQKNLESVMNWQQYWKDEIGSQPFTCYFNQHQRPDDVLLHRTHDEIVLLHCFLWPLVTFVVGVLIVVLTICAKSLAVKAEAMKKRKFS
T2 sequence (Q12791 1-1178 isoform Q12791-5): as the sequence (Q12791 1-1178 isoform Q12791-5) above
T1 sequence (O18866 whole entry): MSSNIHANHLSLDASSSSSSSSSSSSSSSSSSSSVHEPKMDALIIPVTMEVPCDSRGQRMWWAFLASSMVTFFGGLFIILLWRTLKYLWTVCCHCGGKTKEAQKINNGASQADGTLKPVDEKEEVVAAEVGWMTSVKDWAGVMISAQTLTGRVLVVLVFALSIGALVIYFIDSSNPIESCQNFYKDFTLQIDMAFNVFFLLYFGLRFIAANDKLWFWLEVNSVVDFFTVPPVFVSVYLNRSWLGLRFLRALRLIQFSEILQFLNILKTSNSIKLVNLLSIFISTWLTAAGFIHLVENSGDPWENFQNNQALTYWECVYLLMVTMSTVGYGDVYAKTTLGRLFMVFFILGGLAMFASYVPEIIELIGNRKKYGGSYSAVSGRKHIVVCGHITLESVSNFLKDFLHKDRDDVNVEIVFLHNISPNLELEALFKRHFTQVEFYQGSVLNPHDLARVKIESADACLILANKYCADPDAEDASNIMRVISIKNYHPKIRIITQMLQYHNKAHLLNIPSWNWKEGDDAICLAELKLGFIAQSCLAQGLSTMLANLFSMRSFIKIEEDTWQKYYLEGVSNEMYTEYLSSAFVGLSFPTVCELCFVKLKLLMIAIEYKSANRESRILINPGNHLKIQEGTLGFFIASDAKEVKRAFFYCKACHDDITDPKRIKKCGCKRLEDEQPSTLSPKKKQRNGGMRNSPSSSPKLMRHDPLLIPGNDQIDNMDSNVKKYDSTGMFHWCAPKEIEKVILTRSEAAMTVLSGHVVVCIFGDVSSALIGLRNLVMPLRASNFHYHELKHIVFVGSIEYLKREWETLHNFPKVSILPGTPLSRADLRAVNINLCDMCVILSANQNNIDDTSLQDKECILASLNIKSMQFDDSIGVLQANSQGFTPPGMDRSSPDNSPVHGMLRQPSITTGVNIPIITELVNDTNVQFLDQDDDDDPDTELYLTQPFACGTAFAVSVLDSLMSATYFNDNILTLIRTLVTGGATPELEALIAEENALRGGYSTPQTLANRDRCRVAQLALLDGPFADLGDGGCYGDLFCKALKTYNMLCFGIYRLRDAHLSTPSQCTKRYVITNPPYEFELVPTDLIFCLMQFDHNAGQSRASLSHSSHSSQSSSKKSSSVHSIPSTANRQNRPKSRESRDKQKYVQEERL

With `C[C@H](CO)NC(=O)c1cccc(/C=C\CCCC(=O)N(C)C)c1` [VSN16R] as the molecule, how does the effect on current [1] read?
The effect on current was “only a minor effect on current”.

What about the “response in inside-out patch” value [2] of the same molecule?
The value was “does not give a response”.

What about the “enhancement of BKCa current” value ([3]; HEK293, steps −40 mV to +70 mV, 200 nM calcium) of the same molecule?
The value was “not responsive; also recorded: does not act on BKCa channels formed by the exon-less alpha subunit; also recorded: did not display any enhancing effect on the current; also recorded: did not affect the BKCa current at any voltage; also recorded: did not enhance BKCa currents”.

And the “activation voltage / voltage-dependence of activation of BKCa current” value ([3]; intracellular calcium 1 μM, 200 nM, nominally 0 M)?
Its value is “did not shift the voltage-depence of activation; also recorded: did not affect the activation voltage of BKCa current”.

And the “fear conditioning (freezing)” value [4]?
Its value is “inhibits the development of fear conditioning; also recorded: significantly (P<0.001) limited the exaggerated behaviour”.

What about the t½ ([5]; intravenous route) of the same molecule?
Its t½ is 6 min.

What about the “half-life, oral route relative to intravenous route” value ([5]; oral vs intravenous) of the same molecule?
Its value is 10 times.

What about the “effect on βγ-methylene ATP-induced contraction” value [6] of the same molecule?
Its value is “does not affect”.

What about the known efficacy dose [7] of the same molecule?
The known efficacy dose was ≥ 1 mg/kg.

And the membrane potential ([8]; EA.hy926 cells)?
The membrane potential was “induces sustained hyperpolarisation”.

What about the “whole-cell BK current” value ([8]; human EA.hy926 cells, current blocked by paxilline) of the same molecule?
Its value is “induces a BKca specific current; also recorded: induces currents that are sensitive to paxilline”.

And the “open probability of BKca channels” value ([9]; EA.hy926 cells)?
The value was “increases the open probability of BKca channels”.

What about the “activation of the response of the channel” value ([9]; human EA.hy926 cells, calcium dependent) of the same molecule?
The value was “voltage and calcium dependent; also recorded: activation of the response of the channel”.
